SMILES strings stand for the structures.

The target in the assay is T1, hNav1.7 channels (Homo sapiens, UniProt Q15858).
T1 construct: host or cells: HEK293
T1 sequence (Q15858 whole entry): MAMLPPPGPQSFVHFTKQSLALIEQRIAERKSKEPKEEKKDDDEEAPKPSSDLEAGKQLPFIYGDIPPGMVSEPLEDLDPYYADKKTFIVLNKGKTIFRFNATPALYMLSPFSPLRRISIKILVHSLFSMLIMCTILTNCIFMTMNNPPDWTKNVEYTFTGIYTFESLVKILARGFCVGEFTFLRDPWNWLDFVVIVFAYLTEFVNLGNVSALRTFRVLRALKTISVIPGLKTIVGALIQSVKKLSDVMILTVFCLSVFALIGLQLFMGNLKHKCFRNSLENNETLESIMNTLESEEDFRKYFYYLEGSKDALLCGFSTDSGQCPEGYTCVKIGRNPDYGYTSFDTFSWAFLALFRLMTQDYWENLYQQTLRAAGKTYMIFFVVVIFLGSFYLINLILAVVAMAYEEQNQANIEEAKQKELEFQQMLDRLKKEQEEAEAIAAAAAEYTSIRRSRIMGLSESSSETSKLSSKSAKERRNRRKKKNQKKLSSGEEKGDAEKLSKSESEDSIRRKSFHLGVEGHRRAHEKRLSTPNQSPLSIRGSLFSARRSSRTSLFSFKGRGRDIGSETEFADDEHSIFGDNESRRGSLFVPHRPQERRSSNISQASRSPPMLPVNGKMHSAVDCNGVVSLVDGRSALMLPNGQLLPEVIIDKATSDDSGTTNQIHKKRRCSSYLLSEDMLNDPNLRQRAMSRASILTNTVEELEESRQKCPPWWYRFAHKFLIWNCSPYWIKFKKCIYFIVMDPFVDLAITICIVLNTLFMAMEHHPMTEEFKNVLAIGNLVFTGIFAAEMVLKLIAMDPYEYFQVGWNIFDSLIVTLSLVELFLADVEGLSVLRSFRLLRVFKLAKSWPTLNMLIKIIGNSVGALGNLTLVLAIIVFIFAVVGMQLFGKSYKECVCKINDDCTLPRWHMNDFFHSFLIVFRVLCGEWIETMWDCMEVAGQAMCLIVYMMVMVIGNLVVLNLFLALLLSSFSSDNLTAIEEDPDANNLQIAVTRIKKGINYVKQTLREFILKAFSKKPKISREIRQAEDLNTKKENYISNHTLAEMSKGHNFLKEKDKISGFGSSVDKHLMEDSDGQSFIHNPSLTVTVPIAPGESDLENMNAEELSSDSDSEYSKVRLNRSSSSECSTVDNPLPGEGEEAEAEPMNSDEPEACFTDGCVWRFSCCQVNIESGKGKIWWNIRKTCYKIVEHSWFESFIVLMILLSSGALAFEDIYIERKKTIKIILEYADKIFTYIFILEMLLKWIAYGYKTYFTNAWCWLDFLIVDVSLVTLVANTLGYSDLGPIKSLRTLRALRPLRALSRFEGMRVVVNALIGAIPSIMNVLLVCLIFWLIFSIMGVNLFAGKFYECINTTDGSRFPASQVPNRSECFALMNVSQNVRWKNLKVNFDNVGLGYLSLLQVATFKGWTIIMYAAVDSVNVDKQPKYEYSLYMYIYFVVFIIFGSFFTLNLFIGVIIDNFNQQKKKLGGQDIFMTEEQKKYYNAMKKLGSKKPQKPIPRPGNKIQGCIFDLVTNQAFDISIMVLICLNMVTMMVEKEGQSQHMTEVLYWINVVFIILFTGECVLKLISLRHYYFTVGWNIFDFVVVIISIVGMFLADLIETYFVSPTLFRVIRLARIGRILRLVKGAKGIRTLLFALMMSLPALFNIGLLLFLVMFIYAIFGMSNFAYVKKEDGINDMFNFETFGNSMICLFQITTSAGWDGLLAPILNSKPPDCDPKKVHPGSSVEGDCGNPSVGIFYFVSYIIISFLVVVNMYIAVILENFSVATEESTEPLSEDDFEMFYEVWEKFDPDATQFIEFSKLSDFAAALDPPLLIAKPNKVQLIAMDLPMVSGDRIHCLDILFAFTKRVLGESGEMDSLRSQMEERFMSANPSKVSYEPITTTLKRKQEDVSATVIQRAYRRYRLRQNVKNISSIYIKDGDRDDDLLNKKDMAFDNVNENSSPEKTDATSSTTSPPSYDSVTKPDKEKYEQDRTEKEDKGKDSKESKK
Briefly: hNav1.7 channel in vitro patch-clamp assay. The note with it: stable HEK293 cell line expressing hNav1.7; whole cell patch-clamp (QPatch HTX and/or conventional), room temperature; voltage protocol not given. Format: cell-based. On the procedure:
hNav1.7 Channel In Vitro Patch-Clamp Assay
Cells: Sable HEK293 (human embryonic kidney) cell line expressing hNav1.7 channels was used in the assay. The cell line was obtained from Millipore (Millipore Corporation, MA).
Patch-clamp recordings: The recordings were performed on QPatch HTX (Sophion Bioscience, Denmark) and/or conventional patch-clamp (Axon Multiclamp 700B systems, Molecular Devices, CA) platforms at room temperature, using whole cell patch-clamp techniques. The composition of extracellular solution was (in mM): HEPES 5, NaCl 40, KCl 3, CaCl2 1, MgCl2 1, Choline Chloride 100. Adjust pH to 7.2 with 1N NaOH, osmolarity to 300-310 mOsm with sucrose. The composition of intracellular solution was (in mM): HEPES 10, NaCl 10, Na2ATP 1, MgCl2 2, KF 135, EGTA 10. Adjust pH to 7.2 with 1N NaOH, osmolarity to 290-300 mOsm with sucrose.
For conventional patch-clamp, 35 mm culture dishes containing hNav1.7 cells were placed on the stage of an inverted microscope and continuously perfused with extracellular solution from a perfusion system (Biologic Rapid solution changer, RSC-160, ˜1 ml/min). […] The recordings were controlled by pCLAMP10 software. Test compounds were dissolved in 100% DMSO to make stock solutions for each test concentration, and then diluted into extracellular solution to achieve final concentration for testing. Final DMSO concentration was less than 0.3%. Two voltage protocols were used in hNav1.7 assay: for non-inactivated protocol, the sodium currents were elicited by a 2 ms pulse to −10 mV from a holding potential of −110 mV. For inactivated protocol, the holding potential was set at V1/2. The voltage was firstly stepped to −110 mV for 50 ms, then to −10 mV for 2 ms and then stepped back to holding potential. In both protocols the voltage command was given in every 10 s. Compound effect (% inhibition) was determined by difference in current amplitude before and after the application of test compounds. IC50 values were determined from concentration-response curves that were obtained with Hill fitting.
For QPatch HTX assay, hNav1.7 cells grown to 50%-80% confluence were rinsed with DPBS and dissociated with Tryple (Invitrogen, 12605-010). The dissociated cells were then mixed with extracellular solution. After centrifuge, the cells were resuspended in extracellular solution and used in the QPatch experiment. The whole-cell protocols, voltage protocols and application protocols were established with QPatch Assay Software 3.4 (Sophion Bioscience, Denmark). Only the inactivated protocol was used in the QPatch assay.
Background: In patch-clamp work, channel activity is measured electrically.
For the compound `CC(C)COc1ncc(N2C(=O)C3(CC3)c3cc4c(NS(C)(=O)=O)noc4cc32)cc1Cl` [Example 1, N-(7′-(5-chloro-6-isobutoxypyridin-3-yl)-6′-oxo-6′,7′-dihydrospiro[cyclopropane-1,5′-isoxazolo[4,5-f]indol]-3′-yl)methanesulfonamide], the IC50 was determined as 150 nM.
Consider `CC(C)COc1ncc(N2C(=O)C3(CC3)c3cc4c(NS(=O)(=O)C5CC5)noc4cc32)cc1Cl` [Example 2, N-(7′-(5-chloro-6-isobutoxypyridin-3-yl)-6′-oxo-6′,7′-dihydrospiro[cyclopropane-1,5′-isoxazolo[4,5-f]indol]-3′-yl)cyclopropanesulfonamide], for which half-maximal inhibition (IC50) was put at 80 nM.
Take `CC(C)COc1ncc(N2C(=O)C3(CC3)c3cc4c(NS(=O)(=O)C(C)C)noc4cc32)cc1Cl` [Example 3, N-(7′-(5-chloro-6-isobutoxypyridin-3-yl)-6′-oxo-6′,7′-dihydrospiro[cyclopropane-1,5′-isoxazolo[4,5-f]indol]-3′-yl)propane-2-sulfonamide]: half-maximal inhibition (IC50) required 100 nM.
On to `CCS(=O)(=O)Nc1noc2cc3c(cc12)C1(CC1)C(=O)N3c1cnc(OCC(C)C)c(Cl)c1` [Example 4, N-(7′-(5-chloro-6-isobutoxypyridin-3-yl)-6′-oxo-6′,7′-dihydrospiro[cyclopropane-1,5′-isoxazolo[4,5-f]indol]-3′-yl)ethanesulfonamide], for which half-maximal inhibition (IC50) was put at 100 nM.
`CC(C)COc1ncc(N2C(=O)C3(CC3)c3cc4c(NS(=O)(=O)C(F)(F)F)noc4cc32)cc1Cl` [Example 5, N-(7′-(5-chloro-6-isobutoxypyridin-3-yl)-6′-oxo-6′,7′-dihydrospiro[cyclopropane-1,5′-isoxazolo[4,5-f]indol]-3′-yl)-1,1,1-trifluoromethanesulfonamide]: the IC50 turned out to be 430 nM.
Compound `CC(C)COc1ncc(N2C(=O)C3(CC3)c3cc4c(NS(=O)(=O)c5ccccc5)noc4cc32)cc1Cl` [Example 6, N-(7′-(5-chloro-6-isobutoxypyridin-3-yl)-6′-oxo-6′,7′-dihydrospiro[cyclopropane-1,5′-isoxazolo[4,5-f]indol]-3′-yl)benzenesulfonamide] returned an IC50 of 3000 nM.
`CC(C)COc1ncc(N2C(=O)C3(CC3)c3cc4c(NS(=O)(=O)c5cccs5)noc4cc32)cc1Cl` [Example 7, N-(7′-(5-chloro-6-isobutoxypyridin-3-yl)-6′-oxo-6′,7′-dihydrospiro[cyclopropane-1,5′-isoxazolo[4,5-f]indol]-3′-yl)thiophene-2-sulfonamide]: inhibition was half-maximal at 500 nM (IC50).
With `CC(C)COc1ncc(N2C(=O)C3(CC3)c3cc4c(NS(N)(=O)=O)noc4cc32)cc1Cl` [Example 8, N-(7′-(5-chloro-6-isobutoxypyridin-3-yl)-6′-oxo-6′,7′-dihydrospiro[cyclopropane-1,5′-isoxazolo[4,5-f]indol]-3′-yl)aminosulfonamide], the IC50 worked out at 2000 nM.
`CC(C)COc1ncc(N2C(=O)C3(CC3)c3cc4c(NS(=O)(=O)N(C)C)noc4cc32)cc1Cl` [Example 9, N-(7′-(5-chloro-6-isobutoxypyridin-3-yl)-6′-oxo-6′,7′-dihydrospiro[cyclopropane-1,5′-isoxazolo[4,5-f]indol]-3′-yl)dimethylamino-1-sulfonamide] registered an IC50 of 1230 nM.
In the case of `CC(C)COc1ncc(N2C(=O)C3(CC3)c3cc4c(NS(=O)(=O)N5CCCC5)noc4cc32)cc1Cl` [Example 10, N-(7′-(5-chloro-6-isobutoxypyridin-3-yl)-6′-oxo-6′,7′-dihydrospiro[cyclopropane-1,5′-isoxazolo[4,5-f]indol]-3′-yl)pyrrolidine-1-sulfonamide], half-maximal inhibition (IC50) required 500 nM.
As to `CS(=O)(=O)Nc1noc2cc3c(cc12)C1(CC1)C(=O)N3c1cnc(OCC2CCCCC2)c(Cl)c1` [Example 11, N-(7′-(5-chloro-6-(cyclohexylmethoxy)pyridin-3-yl)-6′-oxo-6′,7′-dihydrospiro[cyclopropane-1,5′-isoxazolo[4,5-f]indol]-3′-yl)methanesulfonamide], the IC50 stood at 100 nM.
`CS(=O)(=O)Nc1noc2cc3c(cc12)C1(CC1)C(=O)N3c1cnc(OCC2CCOCC2)c(Cl)c1` [Example 12, N-(7′-(5-chloro-6-((tetrahydro-2H-pyran-4-yl)methoxy)pyridin-3-yl)-6′-oxo-6′,7′-dihydrospiro[cyclopropane-1,5′-isoxazolo[4,5-f]indol]-3′-yl)methanesulfonamide] gave an IC50 of 2000 nM.
In the case of `CS(=O)(=O)Nc1noc2cc3c(cc12)C1(CC1)C(=O)N3c1cnc(OCC2CCC(F)(F)CC2)c(Cl)c1` [Example 13, N-(7′-(5-chloro-6-((4,4-difluorocyclohexyl)methoxy)pyridin-3-yl)-6′-oxo-6′,7′-dihydrospiro[cyclopropane-1,5′-isoxazolo[4,5-f]indol]-3′-yl)methanesulfonamide], the IC50 is 300 nM.
As for `CS(=O)(=O)Nc1noc2cc3c(cc12)C1(CC1)C(=O)N3c1cnc(OCC2CCC(C(F)(F)F)CC2)c(Cl)c1` (stereo not shown) [Example 14, N-(7′-(5-chloro-6-((4-(trifluoromethyl)cyclohexyl)methoxy)pyridin-3-yl)-6′-oxo-6′,7′-dihydrospiro[cyclopropane-1,5′-isoxazolo[4,5-f]indol]-3′-yl)methanesulfonamide], inhibition was half-maximal at 200 nM (IC50).
Compound `CC1(COc2ncc(N3C(=O)C4(CC4)c4cc5c(NS(C)(=O)=O)noc5cc43)cc2Cl)CC1` [Example 15, N-(7′-(5-chloro-6-((1-methylcyclopropyl)methoxy)pyridin-3-yl)-6′-oxo-6′,7′-dihydrospiro[cyclopropane-1,5′-isoxazolo[4,5-f]indol]-3′-yl) methanesulfonamide] came in with an IC50 of 70 nM.
Take `CC1(COc2ncc(N3C(=O)C4(CC4)c4cc5c(NS(=O)(=O)C6CC6)noc5cc43)cc2Cl)CC1` [Example 16, N-(7′-(5-chloro-6-((1-methylcyclopropyl)methoxy)pyridin-3-yl)-6′-oxo-6′,7′-dihydrospiro[cyclopropane-1,5′-isoxazolo[4,5-f]indol]-3′-yl)cyclopropanesulfonamide]: inhibition was half-maximal at 60 nM (IC50).
With `O=C1N(c2cnc(OCCCC(F)(F)F)c(Cl)c2)c2cc3onc(NS(=O)(=O)C4CC4)c3cc2C12CC2` [Example 17, N-(7′-(5-chloro-6-(4,4,4-trifluorobutoxyl)pyridin-3-yl)-6′-oxo-6′,7′-dihydrospiro[cyclopropane-1,5′-isoxazolo[4,5-f]indol]-3′-yl)cyclopropanesulfonamide], the IC50 stood at 200 nM.
In turn, `C[C@H](Oc1ncc(N2C(=O)C3(CC3)c3cc4c(NS(=O)(=O)C5CC5)noc4cc32)cc1Cl)c1ccc(F)cc1` [Example 18, (S)—N-(7′-(5-chloro-6-(1-(4-fluorophenyl)ethoxy)pyridin-3-yl)-6′-oxo-6′,7′-dihydrospiro[cyclopropane-1,5′-isoxazolo[4,5-f]indol]-3′-yl)cyclopropanesulfonamide] yielded an IC50 of 100 nM.
On to `O=C1N(c2cnc(OC3CC(F)(F)C3)c(Cl)c2)c2cc3onc(NS(=O)(=O)C4CC4)c3cc2C12CC2` [Example 19, N-(7′-(5-chloro-6-(3,3-difluorocyclobutoxyl)pyridin-3-yl)-6′-oxo-6′,7′-dihydrospiro[cyclopropane-1,5′-isoxazolo[4,5-f]indol]-3′-yl)cyclopropanesulfonamide], for which the IC50 came out at 200 nM.
`O=C1N(c2cnc(OCC(F)(F)F)c(Cl)c2)c2cc3onc(NS(=O)(=O)C4CC4)c3cc2C12CC2` [Example 20, N-(7′-(5-chloro-6-(2,2,2-trifluoroethoxyl)pyridin-3-yl)-6′-oxo-6′,7′-dihydrospiro[cyclopropane-1,5′-isoxazolo[4,5-f]indol]-3′-yl)cyclopropanesulfonamide] yielded an IC50 of 500 nM.
`O=C1N(c2cnc(OC3CCC3)c(Cl)c2)c2cc3onc(NS(=O)(=O)C4CC4)c3cc2C12CC2` [Example 21, N-(7′-(5-chloro-6-cyclobutoxypyridin-3-yl)-6′-oxo-6′,7′-dihydrospiro[cyclopropane-1,5′-isoxazolo[4,5-f]indol]-3′-yl)cyclopropanesulfonamide] showed an IC50 of 150 nM.
For the compound `CC(C)COc1ncc(N2C(=O)C3(CC3)c3cc4c(NS(=O)(=O)C5CC5)noc4cc32)cc1F` [Example 22, N-(7′-(5-fluoro-6-isobutoxypyridin-3-yl)-6′-oxo-6′,7′-dihydrospiro[cyclopropane-1,5′-isoxazolo[4,5-f]indol]-3′-yl)cyclopropanesulfonamide], the IC50 was 300 nM.

One may read the IC50 as the concentration needed to halve the response being measured. The low end stands for greater potency, the high end for weaker potency.
